The values that follow come from BindingDB's records for doi:10.7270/Q28G8J4C (Broad Institute, 2009).

Counter-ions that a name gives are not always drawn. Bounds are passed on as bounds.

The test has as its target T1, POsterior Segregation (Caenorhabditis elegans, UniProt G5EF15).
T1 sequence (G5EF15 whole entry): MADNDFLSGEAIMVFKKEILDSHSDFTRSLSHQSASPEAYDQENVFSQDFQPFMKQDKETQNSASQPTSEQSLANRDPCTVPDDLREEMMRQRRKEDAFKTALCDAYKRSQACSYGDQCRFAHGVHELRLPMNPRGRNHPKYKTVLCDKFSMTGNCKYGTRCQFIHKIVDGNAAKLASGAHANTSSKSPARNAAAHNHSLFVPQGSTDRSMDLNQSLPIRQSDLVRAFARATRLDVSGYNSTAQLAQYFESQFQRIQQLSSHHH
Briefly: disruptors of C. elegans POS-1 RNA interaction – biochemical, fluorescence polarization, dose response (AID 1964). Background: Polarisation of emitted light reports the rotation of a fluorescent probe.

As usually defined, the EC50 is the concentration at which the effect is half-maximal. `COc1ccc(C=C2CCCC(C(=O)C(F)(F)F)C2=O)cc1OC` (configuration not stated) [(2E,6Z)-2-(3,4-dimethoxybenzylidene)-6-(2,2,2-trifluoro-1-hydroxyethylidene)cyclohexanone] returned an EC50 greater than 300 µM. On to `CN(C)c1ccc(O)c2c1CC1CC3C(N(C)C)C(=O)C(C(N)=O)C(=O)[C@@]3(O)C(=O)C1C2=O` (stereo partly drawn) [(2E,12aS)-2-[azanyl(oxidanyl)methylidene]-4,7-bis(dimethylamino)-10,11,12a-tris(oxidanyl)-4a,5,5a,6-tetrahydro-4H-tetracene-1,3,12-trione;hydrochloride], for which the concentration giving a half-maximal response (EC50) is greater than 300 µM. For `N#CC(C(=O)c1cc2ccccc2o1)c1nc2ccccc2s1` (configuration not stated) [(2Z)-3-(1-benzofuran-2-yl)-2-(3H-1,3-benzothiazol-2-ylidene)-3-oxidanylidene-propanenitrile], the half-maximal effective concentration (EC50) was greater than 300 µM. `C=c1cc(O)c(CN(C)C)c2oc(=Cc3ccco3)c(O)c12` [(2Z)-7-[(dimethylamino)methyl]-2-(furan-2-ylmethylidene)-6-hydroxy-4-methyl-1-benzofuran-3-one] yielded a concentration for a half-maximal effect (EC50) of 32.1 µM. Regarding `C[C@H]1c2cccc(O)c2C(=O)C2C(=O)[C@]3(O)C(=O)C(C(N)=O)C(=O)[C@@H](N(C)C)C3C(O)C21` (stereo partly drawn) [(2Z,4S,5S,6R,12aS)-2-[amino(hydroxy)methylidene]-4-(dimethylamino)-5,10,11,12a-tetrahydroxy-6-methyl-4a,5,5a,6-tetrahydro-4H-tetracene-1,3,12-trione;ethanol;hydrate;hydrochloride], the EC50 is greater than 300 µM. `Cn1c2cc(=N)ccc-2c2ccc(N)cc2c1-c1ccccc1` [(3-amino-5-methyl-6-phenyl-phenanthridin-5-ium-8-yl)amine;bromide] came in with a 50% effective concentration (EC50) of 13.5 µM. This lies in the double-digit micromolar range. Turning to `O=C1N=c2ccccc2=C1NNc1cccc(Cl)c1` [(3E)-1H-indole-2,3-dione 3-[(3-chlorophenyl)hydrazone]], the EC50 is 125 µM. Turning to `Cc1ccc2oc(=O)c(CC(=O)CC(C)C)nc2c1` [(3Z)-3-(2-keto-4-methyl-pentylidene)-6-methyl-4H-1,4-benzoxazin-2-one], the concentration giving a half-maximal response (EC50) is greater than 300 µM. In turn, `COc1ccc(C(=O)CC2=NCC3c4ccccc4CCN3C2=O)cc1` (configuration not stated) [(3Z)-3-[2-(4-methoxyphenyl)-2-oxidanylidene-ethylidene]-2,6,7,11b-tetrahydro-1H-pyrazino[2,1-a]isoquinolin-4-one] displayed an EC50 greater than 300 µM. To `Cc1ccc(C(=O)Cc2nc3ccccc3oc2=O)cc1` [(3Z)-3-[2-(4-methylphenyl)-2-oxidanylidene-ethylidene]-4H-1,4-benzoxazin-2-one] belongs greater than 300 µM; to `Cc1ccc2oc(=O)c(CC(=O)c3cccs3)nc2c1` [(3Z)-3-[2-keto-2-(2-thienyl)ethylidene]-6-methyl-4H-1,4-benzoxazin-2-one], 21.3 µM. To `Cc1ccc(C(=O)Cc2nc3cc(C)ccc3oc2=O)cc1` [(3Z)-3-[2-keto-2-(p-tolyl)ethylidene]-6-methyl-4H-1,4-benzoxazin-2-one] belongs 7.64 µM; to `Cc1ccc(NC=C2SC(=O)c3ccccc32)c(C)c1` [(3Z)-3-[(2,4-dimethylanilino)methylene]isobenzothiophen-1-one], greater than 300 µM.

In the case of `O=C(Cc1nc2ccccc2n(-c2ccccc2)c1=O)c1ccccc1` [(3Z)-3-phenacylidene-1-phenyl-4H-quinoxalin-2-one], the EC50 is 78.2 µM. Consider `O=C(Cc1nc2cc(Cl)ccc2oc1=O)c1cccs1` [(3Z)-6-chloranyl-3-(2-oxidanylidene-2-thiophen-2-yl-ethylidene)-4H-1,4-benzoxazin-2-one], for which the EC50 amounted to 230 µM. Consider `O=C(Cc1nc2cc(Cl)ccc2oc1=O)c1ccco1` [(3Z)-6-chloranyl-3-[2-(furan-2-yl)-2-oxidanylidene-ethylidene]-4H-1,4-benzoxazin-2-one], for which the EC50 is greater than 300 µM. To `Cc1c(NC=C2C(=O)N(C)C(=O)c3ccccc32)c(=O)n(-c2ccccc2)n1C` [(4E)-4-[[(1,5-dimethyl-3-oxo-2-phenyl-4-pyrazolyl)amino]methylidene]-2-methylisoquinoline-1,3-dione] belongs greater than 300 µM.
